Patent publication US9751824B2, “Acetyl salicyclic acid dimers, synthesis thereof, and uses thereof to prevent and treat complement-mediated disorders” (Aurin Biotech Inc., priority 2013, dated 2017)
Where two headings read alike, the source gives them in different places.

Tests used:
[1] = tested on: classical complement pathway; experiment: CH50 assay, hemolysis of sensitized human red blood cells by zymosan-activated dog serum; assay type: cell-based; conditions: Canis lupus familiaris, Erythrocyte, read-out: IC50, protection of human red blood cells from complement attack
Method: To evaluate the strength of blockade of the classical complement pathway achieved by DAS-1 and DAS-2, a standard CH50 assay was employed. Normal human red blood cells were sensitized by incubation overnight with rabbit anti red blood cell antibody. Then dilutions of serum activated by zymosan, with and without various amounts of DAS-1, DAS-2, or the precursor acetylsalicylic acid, were incubated with the sensitized red blood cells for 1 hour at 37° C. The incubates were centrifuged at 5,000 rpm for 10 min. The hemoglobin released into the serum from red blood cells that had been destroyed by complement attack, was determined by reading the optical density (OD) at 405 nm. As a positive control, red blood cells were 100% lysed with water, and as a negative control, no serum was added to the incubate.
DAS-1 and DAS-2 protected human red blood cells from complement attack by zymogen activated serum of human, rat, cat, and dog. FIG. 3A illustrates the result for DAS-1.

[2] = molecular target: T1, C5b-9 membrane attack complex (Homo sapiens, UniProt P02748); experiment: Western blot of red blood cell membranes, classical pathway (FIG. 4A); assay type: cell-based; conditions: zymosan-activated human serum, alternative pathway blocked by antibodies to properdin and Factor D
T1 construct: from tissue; host or cells: human serum, with human red blood cells as the target membrane
Method: To determine at which stage of the complement cascade blockade was occurring, a variation of the CH50 assay was carried out. Instead of measuring hemolysis, western blot analyses of red blood cell membranes were carried out to determine which serum complement proteins were converted into activated complement products that became attached to susceptible membranes. Such attachment only occurs up to the stage of blockade. At stages beyond the blockade, they remain unchanged in the serum. Undiluted human serum was treated for 30 min with DAS-1, DAS-2, or acetyl salicylic acid. Then antibody-conjugated red blood cells in an equal volume were added. The mixtures were incubated at 37° C. for 1 h. They were then treated with a lysis buffer followed by a loading buffer for western blots. Equal amounts of protein from each sample were loaded onto gels and separated by 10% SDS-PAGE. Following SDS-PAGE, proteins were transferred to a PVDF membrane. The membranes were then treated with various primary antibodies followed by labeled secondary antibodies using well established techniques. Bands recognized by the antibodies were visualized by use of an enhanced chemiluminescence system and exposure to photographic film. For probing the same membrane with different antibodies, the membranes were treated with stripping buffer and then treated as before with a different primary antibody. […] The adjacent lane illustrates the effect of adding to the serum zymosan to activate complement, and antibodies to properdin and Factor D to block the alternative pathway. Sensitized red blood cells then become hemolyzed by classical pathway attack. Native serum proteins are consumed and become incorporated into the red cell membranes. C1q was not metabolized, but the band was intensified due to its dissociation from the C1 complex. Native C3 was no longer detected because it had been cleaved, and the C3b fragment had become covalently attached to the membrane. Its degradation product C3d was detected. C4 was no longer detected because it had similarly been cleaved and the C4b fragment attached to the membrane and metabolized into its degradation product C4d. This fragment was also detected. C5 was cleaved and a band for the C5a product detected. Finally, the C5b-9 membrane attack complex, which had formed on the red cell membrane causing its hemolysis, was detected. The next two lanes show the effects of incubation in the presence of DAS-1, DAS-2. […] This establishes that the block provided by DAS-1 and DAS-2 was at the MAC assembly stage.

[3] = molecular target: T2, C2 (Homo sapiens, UniProt P06681); experiment: Fluorometric binding to immobilized protein (FIG. 6); conditions: compound 100 microgm/mL; protein 32 ng/mL
T2 construct: purchased Sino Biologicals Inc., Beijing, China
T2 sequence (P06681 21-752): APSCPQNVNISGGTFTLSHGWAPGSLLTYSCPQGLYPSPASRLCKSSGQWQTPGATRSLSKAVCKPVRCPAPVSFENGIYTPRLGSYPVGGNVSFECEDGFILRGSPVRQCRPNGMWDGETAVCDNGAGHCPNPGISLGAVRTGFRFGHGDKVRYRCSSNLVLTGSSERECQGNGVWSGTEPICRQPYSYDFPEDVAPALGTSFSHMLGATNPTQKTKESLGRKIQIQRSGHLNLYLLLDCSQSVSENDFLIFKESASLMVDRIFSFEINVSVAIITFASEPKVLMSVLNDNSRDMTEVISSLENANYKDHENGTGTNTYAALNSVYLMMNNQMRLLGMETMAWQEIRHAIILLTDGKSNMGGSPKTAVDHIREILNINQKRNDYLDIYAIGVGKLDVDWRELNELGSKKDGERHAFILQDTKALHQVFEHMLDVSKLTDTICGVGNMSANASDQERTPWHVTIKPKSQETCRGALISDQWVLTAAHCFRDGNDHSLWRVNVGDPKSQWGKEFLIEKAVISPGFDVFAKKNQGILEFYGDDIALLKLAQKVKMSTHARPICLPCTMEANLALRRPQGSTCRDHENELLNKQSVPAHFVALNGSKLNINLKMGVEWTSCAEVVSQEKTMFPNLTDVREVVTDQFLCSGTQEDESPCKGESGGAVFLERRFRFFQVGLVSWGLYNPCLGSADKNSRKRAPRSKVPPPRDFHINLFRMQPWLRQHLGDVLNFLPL
Method: (§1) The next set of experiments directly tested the binding of DAS-1 and DAS-2 to properdin, Factor D and complement proteins. These proteins were immobilized on microwell plates in a concentration range of 1-32 ng/mL. DAS-1 and DAS-2 were then added at a concentration of 100 microgm/mL and the solutions incubated as previously described. DAS-1 and DAS-2 binding to the proteins was then assayed according to a previously published fluorometric method except that the excitation frequency was […] and the emission frequency […]. […] Such binding explains why DAS-1 and DAS-2 block the alternative pathway at the stage where Factor D cleaves PC3B to form PC3Bb, and both the classical and alternative pathways at the stage where C9 adds to C5b678. […] There was no binding of DAS-1 or DAS-2 to properdin and only background fluorescence was observed.

[4] = molecular target: T3, C5 (Homo sapiens, UniProt P01031); experiment: as above; conditions: compound 100 microgm/mL; protein 32 ng/mL
T3 construct: purchased Complement technology Inc., Tyler, TX
Method: as §1

[5] = molecular target: T4, C6 (Homo sapiens, UniProt P13671); experiment: as above; conditions: compound 100 microgm/mL; protein 32 ng/mL
T4 construct: purchased Sigma, St. Louis, MO
Method: as §1

[6] = molecular target: T5, C8 (Homo sapiens, UniProt P07357+P07358+P07360); experiment: as above; conditions: compound 100 microgm/mL; protein 32 ng/mL
T5 construct: purchased Sigma, St. Louis, MO
Method: as §1

[7] = molecular target: T6, Factor B (Homo sapiens, UniProt P00751); experiment: as above; conditions: compound 100 microgm/mL; protein 32 ng/mL
T6 construct: purchased Sigma, St. Louis, MO
Method: as §1

[8] = molecular target: T7, Factor D (Homo sapiens, UniProt P00746); experiment: as above; conditions: compound 100 microgm/mL; protein immobilized 1-32 ng/mL
T7 construct: purchased Quidel, San Diego, CA
Method: as §1

[9] = molecular target: T8, properdin (Homo sapiens, UniProt P27918); experiment: as above; conditions: compound 100 microgm/mL; only background fluorescence
T8 construct: purchased Quidel, San Diego, CA
Method: as §1

T1 sequence (P02748 22-559, one chain of several): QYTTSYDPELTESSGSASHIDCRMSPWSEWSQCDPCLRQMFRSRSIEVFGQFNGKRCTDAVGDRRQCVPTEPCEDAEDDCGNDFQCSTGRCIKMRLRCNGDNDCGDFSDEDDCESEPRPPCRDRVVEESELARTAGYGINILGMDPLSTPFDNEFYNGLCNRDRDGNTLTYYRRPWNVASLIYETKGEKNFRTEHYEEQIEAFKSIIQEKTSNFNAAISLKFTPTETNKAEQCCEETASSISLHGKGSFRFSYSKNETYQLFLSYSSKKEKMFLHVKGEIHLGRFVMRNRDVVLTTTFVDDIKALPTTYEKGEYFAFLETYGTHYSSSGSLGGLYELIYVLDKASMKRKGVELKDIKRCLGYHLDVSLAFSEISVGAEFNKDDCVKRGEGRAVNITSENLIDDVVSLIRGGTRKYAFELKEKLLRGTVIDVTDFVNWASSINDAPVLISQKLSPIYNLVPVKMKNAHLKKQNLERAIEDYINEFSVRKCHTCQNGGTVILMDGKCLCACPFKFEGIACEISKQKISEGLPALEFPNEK
T8 sequence (P27918 28-469): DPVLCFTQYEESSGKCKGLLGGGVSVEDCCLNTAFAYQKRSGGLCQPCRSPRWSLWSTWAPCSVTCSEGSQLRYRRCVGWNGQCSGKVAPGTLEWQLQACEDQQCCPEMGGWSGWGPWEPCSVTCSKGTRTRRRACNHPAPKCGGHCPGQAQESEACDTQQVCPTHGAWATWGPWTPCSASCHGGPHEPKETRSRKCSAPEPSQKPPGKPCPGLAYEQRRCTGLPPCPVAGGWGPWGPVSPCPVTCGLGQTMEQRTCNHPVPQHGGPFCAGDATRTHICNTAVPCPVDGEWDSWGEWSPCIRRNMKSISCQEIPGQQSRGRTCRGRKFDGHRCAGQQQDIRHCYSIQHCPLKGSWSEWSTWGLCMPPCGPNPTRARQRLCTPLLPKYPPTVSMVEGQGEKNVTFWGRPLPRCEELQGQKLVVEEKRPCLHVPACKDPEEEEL
T3 sequence (P01031 19-1676): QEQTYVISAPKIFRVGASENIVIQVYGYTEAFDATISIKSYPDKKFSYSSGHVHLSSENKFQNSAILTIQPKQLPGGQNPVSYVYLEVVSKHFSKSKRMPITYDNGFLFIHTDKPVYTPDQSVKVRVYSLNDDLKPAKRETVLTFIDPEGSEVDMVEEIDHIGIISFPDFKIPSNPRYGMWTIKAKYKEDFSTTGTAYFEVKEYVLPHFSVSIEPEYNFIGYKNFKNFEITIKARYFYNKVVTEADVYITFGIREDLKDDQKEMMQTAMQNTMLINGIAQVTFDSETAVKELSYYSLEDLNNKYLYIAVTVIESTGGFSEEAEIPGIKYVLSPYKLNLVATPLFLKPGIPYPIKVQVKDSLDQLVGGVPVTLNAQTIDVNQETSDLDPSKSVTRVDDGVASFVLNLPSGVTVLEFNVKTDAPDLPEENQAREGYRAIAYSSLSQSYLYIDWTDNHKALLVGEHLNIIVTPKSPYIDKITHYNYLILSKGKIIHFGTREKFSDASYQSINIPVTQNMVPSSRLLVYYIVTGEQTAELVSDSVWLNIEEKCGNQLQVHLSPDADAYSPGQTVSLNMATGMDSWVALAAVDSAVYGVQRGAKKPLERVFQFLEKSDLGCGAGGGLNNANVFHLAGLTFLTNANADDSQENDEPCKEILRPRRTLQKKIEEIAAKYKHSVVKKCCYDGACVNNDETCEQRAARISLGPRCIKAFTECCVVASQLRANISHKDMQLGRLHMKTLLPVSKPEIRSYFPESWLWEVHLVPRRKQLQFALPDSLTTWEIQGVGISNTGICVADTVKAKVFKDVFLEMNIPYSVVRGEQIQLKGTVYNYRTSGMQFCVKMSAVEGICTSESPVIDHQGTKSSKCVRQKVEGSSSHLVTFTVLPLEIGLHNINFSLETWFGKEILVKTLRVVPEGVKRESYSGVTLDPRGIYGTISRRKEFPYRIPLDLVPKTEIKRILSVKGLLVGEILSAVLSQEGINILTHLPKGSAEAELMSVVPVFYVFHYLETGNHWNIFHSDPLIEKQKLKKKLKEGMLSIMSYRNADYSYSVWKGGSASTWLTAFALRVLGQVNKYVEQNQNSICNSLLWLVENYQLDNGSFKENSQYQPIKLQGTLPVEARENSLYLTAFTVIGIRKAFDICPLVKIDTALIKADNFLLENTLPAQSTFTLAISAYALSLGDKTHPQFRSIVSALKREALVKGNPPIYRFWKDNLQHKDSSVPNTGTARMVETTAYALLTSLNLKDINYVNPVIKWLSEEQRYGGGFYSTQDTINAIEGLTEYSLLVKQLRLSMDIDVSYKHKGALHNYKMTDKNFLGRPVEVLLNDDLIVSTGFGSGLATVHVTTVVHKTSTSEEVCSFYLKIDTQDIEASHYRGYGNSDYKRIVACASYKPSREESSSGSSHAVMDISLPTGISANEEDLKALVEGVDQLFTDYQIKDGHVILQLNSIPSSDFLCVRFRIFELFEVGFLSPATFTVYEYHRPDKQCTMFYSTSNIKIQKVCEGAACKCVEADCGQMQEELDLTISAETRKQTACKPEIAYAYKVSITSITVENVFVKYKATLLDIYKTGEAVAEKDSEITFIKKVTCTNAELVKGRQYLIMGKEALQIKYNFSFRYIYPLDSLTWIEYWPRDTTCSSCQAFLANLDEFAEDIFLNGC
T7 sequence (P00746 26-253): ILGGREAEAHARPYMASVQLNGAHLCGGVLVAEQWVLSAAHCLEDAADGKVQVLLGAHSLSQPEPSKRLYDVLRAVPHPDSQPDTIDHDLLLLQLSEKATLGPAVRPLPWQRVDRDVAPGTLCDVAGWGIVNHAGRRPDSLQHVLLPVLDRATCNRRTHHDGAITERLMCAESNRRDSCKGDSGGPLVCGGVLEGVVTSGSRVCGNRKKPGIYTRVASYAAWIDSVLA
T5 sequence (P07357 31-584): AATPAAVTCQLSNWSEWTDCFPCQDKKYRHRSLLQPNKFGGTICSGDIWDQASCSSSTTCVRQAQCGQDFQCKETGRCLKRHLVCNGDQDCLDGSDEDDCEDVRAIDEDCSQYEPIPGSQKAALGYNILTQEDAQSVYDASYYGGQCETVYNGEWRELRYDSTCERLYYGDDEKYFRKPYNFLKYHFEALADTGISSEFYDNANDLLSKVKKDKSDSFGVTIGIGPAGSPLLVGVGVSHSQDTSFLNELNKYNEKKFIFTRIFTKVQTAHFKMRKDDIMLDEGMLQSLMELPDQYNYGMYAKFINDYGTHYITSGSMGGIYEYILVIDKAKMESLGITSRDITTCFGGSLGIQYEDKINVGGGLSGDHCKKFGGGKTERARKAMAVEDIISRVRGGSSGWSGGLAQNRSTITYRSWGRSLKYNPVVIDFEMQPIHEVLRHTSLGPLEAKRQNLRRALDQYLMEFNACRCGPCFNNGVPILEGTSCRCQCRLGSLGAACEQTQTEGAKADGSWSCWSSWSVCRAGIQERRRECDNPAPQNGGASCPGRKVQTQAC
T5 sequence (P07358 55-591): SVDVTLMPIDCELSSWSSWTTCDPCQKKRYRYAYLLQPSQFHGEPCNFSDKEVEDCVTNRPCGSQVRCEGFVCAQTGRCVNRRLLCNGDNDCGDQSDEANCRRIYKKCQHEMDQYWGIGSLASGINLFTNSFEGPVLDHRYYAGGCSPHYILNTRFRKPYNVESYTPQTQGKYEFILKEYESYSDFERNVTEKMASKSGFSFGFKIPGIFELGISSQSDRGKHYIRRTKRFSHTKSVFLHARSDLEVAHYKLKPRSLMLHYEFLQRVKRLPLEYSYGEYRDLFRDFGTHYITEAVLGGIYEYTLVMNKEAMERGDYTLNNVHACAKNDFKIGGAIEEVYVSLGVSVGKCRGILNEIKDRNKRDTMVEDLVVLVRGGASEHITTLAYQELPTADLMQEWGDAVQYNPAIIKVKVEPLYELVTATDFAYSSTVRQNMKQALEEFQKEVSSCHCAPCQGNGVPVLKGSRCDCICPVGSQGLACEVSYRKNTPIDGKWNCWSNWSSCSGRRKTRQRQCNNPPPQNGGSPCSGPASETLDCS
T5 sequence (P07360 21-202): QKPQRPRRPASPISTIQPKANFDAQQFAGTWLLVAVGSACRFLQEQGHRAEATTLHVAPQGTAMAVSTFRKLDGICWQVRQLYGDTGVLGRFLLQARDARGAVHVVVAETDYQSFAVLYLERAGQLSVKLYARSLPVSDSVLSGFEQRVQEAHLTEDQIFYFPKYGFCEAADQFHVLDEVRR
T4 sequence (P13671 22-934): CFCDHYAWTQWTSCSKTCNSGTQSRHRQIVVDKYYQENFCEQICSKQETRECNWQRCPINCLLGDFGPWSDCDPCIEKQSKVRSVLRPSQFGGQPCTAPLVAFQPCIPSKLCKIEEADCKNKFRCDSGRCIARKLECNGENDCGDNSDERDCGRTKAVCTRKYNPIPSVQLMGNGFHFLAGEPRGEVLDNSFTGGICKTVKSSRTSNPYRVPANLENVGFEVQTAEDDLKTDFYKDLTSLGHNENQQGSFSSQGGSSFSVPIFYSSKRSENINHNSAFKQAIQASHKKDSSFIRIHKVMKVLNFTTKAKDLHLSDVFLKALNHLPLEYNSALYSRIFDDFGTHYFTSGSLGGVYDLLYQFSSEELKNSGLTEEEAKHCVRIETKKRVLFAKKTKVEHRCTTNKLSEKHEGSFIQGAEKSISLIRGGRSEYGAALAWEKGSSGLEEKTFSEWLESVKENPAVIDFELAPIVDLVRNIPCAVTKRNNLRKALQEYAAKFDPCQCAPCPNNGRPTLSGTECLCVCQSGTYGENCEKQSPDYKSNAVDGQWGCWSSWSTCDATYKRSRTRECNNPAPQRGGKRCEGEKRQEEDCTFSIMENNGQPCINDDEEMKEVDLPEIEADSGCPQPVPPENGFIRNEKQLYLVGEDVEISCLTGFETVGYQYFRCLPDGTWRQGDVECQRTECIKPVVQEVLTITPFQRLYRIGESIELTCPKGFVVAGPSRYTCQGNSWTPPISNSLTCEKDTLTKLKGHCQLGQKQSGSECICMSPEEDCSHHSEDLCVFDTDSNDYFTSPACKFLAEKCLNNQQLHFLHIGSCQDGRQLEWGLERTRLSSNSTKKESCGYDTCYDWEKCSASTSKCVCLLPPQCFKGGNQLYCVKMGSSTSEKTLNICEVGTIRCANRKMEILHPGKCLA

| SMILES | IC50 ([1]; 1 hour at 37° C., OD 405 nm) | bands for the opsonization steps versus unprotected lane [2] | detection of membrane attack complex on red cell membranes [2] | hemolysis of red cells [2] | binding to C2 [3] | binding to C5 [4] | binding to C6 [5] | binding to C8 [6] | binding to Factor B [7] | binding to Factor D [8] | binding to properdin [9] | IC50 ([1]; unit inferred) |
| --- | --- | --- | --- | --- | --- | --- | --- | --- | --- | --- | --- | --- |
| CC(=O)Oc1ccc(-c2ccc(OC(C)=O)c(C(=O)O)c2)cc1C(=O)O [DAS-1, 4,4′-diacetoxy-[1,1′-biphenyl]-3,3′-dicarboxylic acid] | 142 nM | Identical bands | not detected | not hemolyzed | did not bind | did not bind | did not bind | did not bind | did not bind | bound strongly | no binding |  |
| CC(=O)Oc1ccc(Cc2ccc(OC(C)=O)c(C(=O)O)c2)cc1C(=O)O [DAS-2, 5,5′-methylenebis(2-acetoxybenzoic acid)] |  | Identical bands | not detected | not hemolyzed | did not bind | did not bind | did not bind | did not bind | did not bind | bound strongly | no binding | 98 nM |
